71 compounds from patent publication US20250066389A1, “HETEROCYCLIC AMIDES AND METHODS OF USING THE SAME” (Rgenta Therapeutics, Inc., priority 2021, published 2025) can be followed below.

Where only a bound is given, the exact number is not on record here.

The assay relates to PMS1. Put plainly: Mini-Gene Reporter Assay—PMS1 (firefly luciferase mini-gene reporter transiently transfected into HEK293 cells). The class given is cell-based. The conditions noted are these: Homo sapiens; at 5 uM; mini-gene firefly luciferase reporter in HEK293 cells; read-out: PMS1 % Effect at 5 uM. Put shortly:
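HEK293 cells transiently transfected with a mini-gene construct (skipped exon with flanking introns/exons fused to firefly luciferase, pcDNA3.1) are incubated with compounds in duplicate. Exon inclusion raises luminescence; EC50 fitted by Levenberg-Marquardt; effect also scored at 5 μM.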

Turning to `CCOc1cc2nn(C)cc2cc1C(=O)Nc1cnc(N2CC34CCCCC3(CNC4)C2)cn1` (centres unmarked) [Compound 331], the activation at 5 µM was < 50%.
On to `CCOc1cc2nn(C)cc2cc1C(=O)Nc1cnc(N2CCCNC(C)C2)cn1` (centres unmarked) [Compound 332], for which the activation at 5 µM is > 75%.
`CCOc1cc2nn(C)cc2cc1C(=O)Nc1cnc(NCC[C@H]2CCNC2)cn1` [Compound 333]: the activation at 5 µM is < 50%.
In the case of `CCOc1cc2nn(C)cc2cc1C(=O)Nc1cnc(NCc2ccc(CN3CCNCC3)cc2)cn1` [Compound 334], the activation at 5 µM was < 50%.
For `CCOc1cc2nn(C)cc2cc1C(=O)Nc1cnc(NCC2CCNCC2(F)F)cn1` (centres unmarked) [Compound 335], the activation at 5 µM is < 50%.
For `CCOc1cc2nn(C)cc2cc1C(=O)Nc1cnc(N2CC3(CNCCO3)C2)cn1` [Compound 337], the activation at 5 µM is < 50%.
As for `CCOc1cc2nn(C)cc2cc1C(=O)Nc1cnc(N2CCC(C3CCCN3)CC2)cn1` (centres unmarked) [Compound 338], the figure is > 75%.
`CCOc1cc2nn(C)cc2cc1C(=O)Nc1cnc(N2CCCC(NCCO)C2)cn1` (centres unmarked) [Compound 339]: the activation at 5 µM is > 75%.
On to `CCOc1cc2nn(C)cc2cc1C(=O)Nc1cnc(N2CCC[C@H]3CNC[C@H]32)cn1` [Compound 340], for which the activation at 5 µM lay within 50 to 75%.
On to `CCOc1cc2nn(C)cc2cc1C(=O)Nc1cnc(N2CCOC3(CCNC3)C2)cn1` (centres unmarked) [Compound 341], for which the activation at 5 µM is < 50%.
Turning to `CCOc1cc2nn(C)cc2cc1C(=O)Nc1cnc(N2C[C@@H](F)C[C@H]2CNC)cn1` [Compound 342], the activation at 5 µM was < 50%.
As for `CCOc1cc2nn(C)cc2cc1C(=O)Nc1cnc(N2CCC3(CCCN3)CC2)cn1` [Compound 343], the activation at 5 µM is > 75%.
As to `CCNCCN(CC)c1cnc(NC(=O)c2cc3cn(C)nc3cc2OCC)cn1` [Compound 344], the activation at 5 µM was < 50%.
As to `CCOc1cc2nn(C)cc2cc1C(=O)Nc1cnc(NCC2CNCCOC2)cn1` (centres unmarked) [Compound 347], the activation at 5 µM was < 50%.
Regarding `CCOc1cc2nn(C)cc2cc1C(=O)Nc1cnc(NC2CCNCC2C)cn1` (centres unmarked) [Compound 348], the activation at 5 µM was 50 to 75%.
Regarding `CCOc1cc2nn(C)cc2cc1C(=O)Nc1cnc(NCC2COCCN2)cn1` (centres unmarked) [Compound 349], the activation at 5 µM is < 50%.
With `CCOc1cc2nn(C)cc2cc1C(=O)Nc1cnc(N2CCC3(CC2)CNCCO3)cn1` [Compound 350], the activation at 5 µM is 50 to 75%.
As for `CCOc1cc2nn(C)cc2cc1C(=O)Nc1cnc(N2CCCNCC2C)cn1` (centres unmarked) [Compound 351], the figure is < 50%.
Take `CCOc1cc2nn(C)cc2cc1C(=O)Nc1cnc(N2CCC3(CCNCC3)C2)cn1` [Compound 352]: the activation at 5 µM is > 75%.
As for `CCOc1cc2nn(C)cc2cc1C(=O)Nc1cnc(N2CCCC(CCN)C2)cn1` (centres unmarked) [Compound 353], the figure is < 50%; as for `CCOc1cc2nn(C)cc2cc1C(=O)Nc1cnc(NCC2CNCCO2)cn1` (centres unmarked) [Compound 354], < 50%.
With `CCOc1cc2nn(C)cc2cc1C(=O)Nc1cnc(NC2CCNCC2F)cn1` (centres unmarked) [Compound 355], the activation at 5 µM is > 75%.
On to `CCOc1cc2nn(C)cc2cc1C(=O)Nc1cnc(NC(C)C2CCNCC2)cn1` (centres unmarked) [Compound 356], for which the activation at 5 µM was < 50%.
As to `CCOc1cc2nn(C)cc2cc1C(=O)Nc1cnc(N2CCOC3(CCNCC3)C2)cn1` [Compound 357], the activation at 5 µM was < 50%.
As for `CCOc1cc2nn(C)cc2cc1C(=O)Nc1cnc(NCCC2CCCCN2)cn1` (centres unmarked) [Compound 358], the figure is 50 to 75%.
As for `CCOc1cc2nn(C)cc2cc1C(=O)Nc1cnc(NC[C@@H]2C[C@H]3CC[C@@H](C2)N3)cn1` [Compound 359], the figure is < 50%; as for `CCOc1cc2nn(C)cc2cc1C(=O)Nc1cnc(N2CCN[C@@H](C(C)C)C2)cn1` [Compound 360], > 75%; as for `CCOc1cc2nn(C)cc2cc1C(=O)Nc1cnc(N2CCC(NC)C2)cn1` (centres unmarked) [Compound 361], > 75%.
As to `CCOc1cc2nn(C)cc2cc1C(=O)Nc1cnc(NCCCN2CCNCC2)cn1` [Compound 362], the activation at 5 µM was < 50%.
With `CCOc1cc2nn(C)cc2cc1C(=O)Nc1cnc(N2C[C@H]3CNC[C@H]3C2)cn1` [Compound 363], the activation at 5 µM was > 75%.
For the compound `CCOc1cc2nn(C)cc2cc1C(=O)Nc1cnc(NC[C@@H]2CCNC2)cn1` [Compound 364], the activation at 5 µM was in the range of 50 to 75%.
Turning to `CCCNCCNc1cnc(NC(=O)c2cc3cn(C)nc3cc2OCC)cn1` [Compound 365], the activation at 5 µM was > 75%.
`CCOc1cc2nn(C)cc2cc1C(=O)Nc1cnc(N[C@@H]2C[C@H]3CC[C@@H](C2)N3)cn1` [Compound 366]: the activation at 5 µM was > 75%.
As for `CCOc1cc2nn(C)cc2cc1C(=O)Nc1cnc(N[C@H]2C[C@H]3CC[C@@H](C2)N3)cn1` [Compound 367], the figure is > 75%; as for `CCOc1cc2nn(C)cc2cc1C(=O)Nc1cnc(N2CCNCC2)cn1` [Compound 370], > 75%.
Turning to `CCOc1cc2nn(C)cc2cc1C(=O)Nc1cnc(N2CCC(N)CC2)cn1` [Compound 371], the activation at 5 µM is > 75%.
Regarding `CCOc1cc2nn(C)cc2cc1C(=O)Nc1cnc(N2CCC(N)C2)cn1` (centres unmarked) [Compound 372], the activation at 5 µM was > 75%.
For the compound `CCOc1cc2nn(C)cc2cc1C(=O)Nc1cnc(NC2CCNCC2)cn1` [Compound 373], the activation at 5 µM is > 75%.
Regarding `CCOc1cc2nn(C)cc2cc1C(=O)Nc1cnc(N2CCNC(C)C2)cn1` (centres unmarked) [Compound 374], the activation at 5 µM is > 75%.
`CCOc1cc2nn(C)cc2cc1C(=O)Nc1cnc(NC2CCCNC2)cn1` (centres unmarked) [Compound 375]: the activation at 5 µM lay in the range of 50 to 75%.
On to `CCOc1cc2nn(C)cc2cc1C(=O)Nc1cnc(N[C@@H]2CCNC2)cn1` [Compound 376], for which the activation at 5 µM was > 75%.
Then `CCOc1cc2nn(C)cc2cc1C(=O)Nc1cnc(N[C@@H]2CCCNC2)cn1` [Compound 377], with 50 to 75%; and `CCOc1cc2nn(C)cc2cc1C(=O)Nc1cnc(NCC2CCCNC2)cn1` (centres unmarked) [Compound 378], with < 50%.
Regarding `CCOc1cc2nn(C)cc2cc1C(=O)Nc1cnc(N[C@@H]2CNC[C@H](F)C2)nc1` [Compound 380], the activation at 5 µM is < 50%.
Consider `CCOc1cc2nn(C)cc2cc1C(=O)Nc1cnc(NCC(F)C2CCNCC2)nc1` (centres unmarked) [Compound 381], for which the activation at 5 µM was < 50%.
`CCOc1cc2nn(C)cc2cc1C(=O)Nc1cnc(N2CCNC(C(F)F)C2)nc1` (centres unmarked) [Compound 382]: the activation at 5 µM was < 50%.
For `CCOc1cc2nn(C)cc2cc1C(=O)Nc1cnc(NC2CCC23CNC3)nc1` (centres unmarked) [Compound 383], the activation at 5 µM is < 50%.
`CCOc1cc2nn(C)cc2cc1C(=O)Nc1cnc(NCC[C@H]2C[C@H](N)C2)nc1` [Compound 384]: the activation at 5 µM is < 50%.
`CCOc1cc2nn(C)cc2cc1C(=O)Nc1cnc(NCC2C=CCN2)nc1` (centres unmarked) [Compound 385]: the activation at 5 µM was < 50%.
`CCOc1cc2nn(C)cc2cc1C(=O)Nc1cnc(N[C@@H]2CNC[C@@H](F)C2)nc1` [Compound 386]: the activation at 5 µM is < 50%.
Turning to `CCOc1cc2nn(C)cc2cc1C(=O)Nc1cnc(NCc2nn(C)c3c2CNCC3)nc1` [Compound 388], the activation at 5 µM was < 50%.
As for `CCOc1cc2nn(C)cc2cc1C(=O)Nc1cnc(NC[C@H](C)NC)nc1` [Compound 390], the activation at 5 µM is < 50%.
For the compound `CCOc1cc2nn(C)cc2cc1C(=O)Nc1cnc(NC[C@H]2C[C@@](F)(CN)C2)nc1` [Compound 391], the activation at 5 µM was < 50%.
Consider `CCOc1cc2nn(C)cc2cc1C(=O)Nc1cnc(NC[C@]2(F)C[C@@H](N)C2)nc1` [Compound 392], for which the activation at 5 µM was < 50%.
As for `CCOc1cc2nn(C)cc2cc1C(=O)Nc1cnc(NCc2cc3n(n2)CCNC3)nc1` [Compound 393], the figure is < 50%.
Then `CCOc1cc2nn(C)cc2cc1C(=O)Nc1cnc(NC[C@H]2CNCC(C)(C)O2)nc1` [Compound 394], with < 50%; and `CCOc1cc2nn(C)cc2cc1C(=O)Nc1cnc(NCC2CCNCCC2(F)F)nc1` (centres unmarked) [Compound 395], with < 50%.
On to `CCOc1cc2nn(C)cc2cc1C(=O)Nc1cnc(NC2CNCC23CC3)nc1` (centres unmarked) [Compound 397], for which the activation at 5 µM is < 50%.
Regarding `CCOc1cc2nn(C)cc2cc1C(=O)Nc1cnc(NCCCC2CCCN2)nc1` (centres unmarked) [Compound 398], the activation at 5 µM was < 50%.
On to `CCOc1cc2nn(C)cc2cc1C(=O)Nc1cnc(NC2CC3NCCOC3C2)nc1` (centres unmarked) [Compound 399], for which the activation at 5 µM was < 50%.
Regarding `CCOc1cc2nn(C)cc2cc1C(=O)Nc1cnc(NC[C@H]2CC[C@H](CNC)CC2)nc1` [Compound 400], the activation at 5 µM was < 50%.
As for `CCOc1cc2nn(C)cc2cc1C(=O)Nc1cnc(NCc2c(C)nn3c2CNCC3)nc1` [Compound 403], the figure is < 50%; as for `CCOc1cc2nn(C)cc2cc1C(=O)Nc1cnc(NCC2CC3(CCNC3)CO2)nc1` (centres unmarked) [Compound 405], < 50%.
As for `CCOc1cc2nn(C)cc2cc1C(=O)Nc1cnc(NCC23CC(N)(C2)C3)nc1` [Compound 406], the activation at 5 µM was < 50%.
Regarding `CCOc1cc2nn(C)cc2cc1C(=O)Nc1cnc(NC2CNCC2(C)C)nc1` (centres unmarked) [Compound 407], the activation at 5 µM is < 50%.
As to `CCOc1cc2nn(C)cc2cc1C(=O)Nc1cnc(NCC2CNC(C)(C)C2)nc1` (centres unmarked) [Compound 408], the activation at 5 µM is < 50%.
As for `CCOc1cc2nn(C)cc2cc1C(=O)Nc1cnc(NCc2cnn3c2CNCC3)nc1` [Compound 409], the figure is < 50%; as for `CCOc1cc2nn(C)cc2cc1C(=O)Nc1cnc(N2CCC(N)(CC)CC2)nc1` [Compound 410], > 75%.
On to `CCOc1cc2nn(C)cc2cc1C(=O)Nc1cnc(NCC2CNCCC2(F)F)nc1` (centres unmarked) [Compound 411], for which the activation at 5 µM was < 50%.
With `CCOc1cc2nn(C)cc2cc1C(=O)Nc1cnc(N2CC(NC)C(C)(C)C2)nc1` (centres unmarked) [Compound 412], the activation at 5 µM is < 50%.
As for `CCOc1cc2nn(C)cc2cc1C(=O)Nc1cnc(NCC2CNC(C)C2)nc1` (centres unmarked) [Compound 413], the figure is < 50%.
